# According to paper PMC11111408, “Concurrent inhibition of oncogenic and wild-type RAS-GTP for cancer therapy” (Nature, 2024):
# System: PRISM DNA-barcoded human tumour cell lines
# Assay: PRISM pooled cell viability assay;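 for PRISM AUC: 8 threefold dilutions from 10 µM with 5 days of exposure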
# Format: cell-based
# Design: AUC (PRISM viability) / AUC (PRISM): unit not given beside the values
# Settings: for AUC (PRISM viability): WT; for PRISM AUC: KRAS MUT
# Experimental: Cells were then lysed in TCL mRNA lysis buffer, and then PCR with reverse transcription was performed. Detection of the barcodes and univariate and multivariate analysis was then performed as previously described. Data analysis is described in the Supplementary Methods. Up-to-date code for our analysis is at the github link: https://github.com/cmap/dockerized_mts.
# For every gene with non-silent mutations in at least four cell-lines, we compared the AUC values between cells with and without those mutations using a t-test. This analysis was carried out for: (i) the full dataset; (ii) excluding cell lines with non-silent KRAS mutations; and (iii) excluding cell lines that have either KRAS or NRAS non-silent mutations.
compound,measurement,setting,value
CCn1c(-c2cc(N3CCN(C4CC4)CC3)cnc2[C@H](C)OC)c2c3cc(ccc31)-c1csc(n1)C[C@H](NC(=O)[C@H]1[C@@H]3COC[C@@H]31)C(=O)N1CCC[C@H](N1)C(=O)OCC(C)(C)C2 [RMC-7977],AUC (PRISM viability),SCC25_UPPER_AERODIGESTIVE_TRACT,0.3367
same,AUC (PRISM viability),SCLC21H_LUNG,0.9496
same,AUC (PRISM viability),SEM_HAEMATOPOIETIC_AND_LYMPHOID_TISSUE,0.8793
same,AUC (PRISM viability),SF126_CENTRAL_NERVOUS_SYSTEM,0.7112
same,AUC (PRISM viability),SF295_CENTRAL_NERVOUS_SYSTEM,0.7908
same,AUC (PRISM viability),SF539_CENTRAL_NERVOUS_SYSTEM,0.7182
same,AUC (PRISM viability),SH4_SKIN,0.8584
same,PRISM AUC,SH10TC_STOMACH,0.4138
same,PRISM AUC,SHP77_LUNG,0.4654
same,AUC (PRISM viability),SIMA_AUTONOMIC_GANGLIA,0.5854
same,AUC (PRISM viability),SKES1_BONE,0.8807
same,AUC (PRISM viability),SKHEP1_LIVER,0.7844
same,AUC (PRISM viability),SKLMS1_SOFT_TISSUE,0.3954
same,PRISM AUC,SKLU1_LUNG,0.1796
same,AUC (PRISM viability),SKMEL3_SKIN,1
same,AUC (PRISM viability),SKMEL5_SKIN,0.8492
same,AUC (PRISM viability),SKMEL24_SKIN,0.8551
same,AUC (PRISM viability),SKMEL28_SKIN,0.8799
same,AUC (PRISM viability),SKMEL30_SKIN,0.2141
same,AUC (PRISM viability),SKMES1_LUNG,0.4907
same,AUC (PRISM viability),SKNAS_AUTONOMIC_GANGLIA,0.2639
same,AUC (PRISM viability),SKNBE2_AUTONOMIC_GANGLIA,0.4969
same,AUC (PRISM viability),SKNDZ_AUTONOMIC_GANGLIA,0.7338
same,AUC (PRISM viability),SKNMC_BONE,0.8913
same,AUC (PRISM viability),SKNO1_HAEMATOPOIETIC_AND_LYMPHOID_TISSUE,0.4958
same,AUC (PRISM viability),SKOV3_OVARY,0.8555
same,AUC (PRISM viability),SKUT1_SOFT_TISSUE,0.8493
same,AUC (PRISM viability),SNB75_CENTRAL_NERVOUS_SYSTEM,0.7551
same,PRISM AUC,SNGM_ENDOMETRIUM,0.5073
same,PRISM AUC,SNU1_STOMACH,0.47
same,AUC (PRISM viability),SNU46_UPPER_AERODIGESTIVE_TRACT,0.6229
same,PRISM AUC,SNU61_LARGE_INTESTINE,0.1577
same,AUC (PRISM viability),SNU182_LIVER,1
same,AUC (PRISM viability),SNU201_CENTRAL_NERVOUS_SYSTEM,0.8111
same,PRISM AUC,SNU213_PANCREAS,0.2216
same,AUC (PRISM viability),SNU216_STOMACH,0.4345
same,AUC (PRISM viability),SNU245_BILIARY_TRACT,0.5897
same,AUC (PRISM viability),SNU308_BILIARY_TRACT,0.4973
same,AUC (PRISM viability),SNU398_LIVER,0.9232
same,PRISM AUC,SNU407_LARGE_INTESTINE,0.42
same,PRISM AUC,SNU410_PANCREAS,0.5771
same,AUC (PRISM viability),SNU423_LIVER,0.6851
same,AUC (PRISM viability),SNU449_LIVER,0.7416
same,AUC (PRISM viability),SNU466_CENTRAL_NERVOUS_SYSTEM,0.3575
same,AUC (PRISM viability),SNU489_CENTRAL_NERVOUS_SYSTEM,0.8437
same,PRISM AUC,SNU601_STOMACH,0.2276
same,AUC (PRISM viability),SNU685_ENDOMETRIUM,0.8482
same,AUC (PRISM viability),SNU719_STOMACH,0.2772
same,AUC (PRISM viability),SNU761_LIVER,0.9921
same,AUC (PRISM viability),SNU840_OVARY,0.3829
same,PRISM AUC,SNU869_BILIARY_TRACT,0.3809
same,AUC (PRISM viability),SNU878_LIVER,0.7757
same,AUC (PRISM viability),SNU886_LIVER,0.4222
same,AUC (PRISM viability),SNU899_UPPER_AERODIGESTIVE_TRACT,0.2281
same,AUC (PRISM viability),SNU1076_UPPER_AERODIGESTIVE_TRACT,0.2341
same,AUC (PRISM viability),SNU1077_ENDOMETRIUM,0.9228
same,AUC (PRISM viability),SNU1079_BILIARY_TRACT,0.7613
same,AUC (PRISM viability),SNU1105_CENTRAL_NERVOUS_SYSTEM,0.4704
same,AUC (PRISM viability),SNU1196_BILIARY_TRACT,0.9637
same,AUC (PRISM viability),SNU1214_UPPER_AERODIGESTIVE_TRACT,0.179
same,PRISM AUC,SNUC2A_LARGE_INTESTINE,0.7905
same,AUC (PRISM viability),SNUC4_LARGE_INTESTINE,0.612
same,AUC (PRISM viability),SQ1_LUNG,0.3633
same,AUC (PRISM viability),SR786_HAEMATOPOIETIC_AND_LYMPHOID_TISSUE,0.6127
same,PRISM AUC,SUIT2_PANCREAS,0.4229
same,PRISM AUC,SW480_LARGE_INTESTINE,0.2548
same,AUC (PRISM viability),SW579_THYROID,0.4828
same,PRISM AUC,SW620_LARGE_INTESTINE,0.1434
same,AUC (PRISM viability),SW780_URINARY_TRACT,0.559
same,PRISM AUC,SW900_LUNG,0.3401
same,AUC (PRISM viability),SW1088_CENTRAL_NERVOUS_SYSTEM,0.6279
same,AUC (PRISM viability),SW1271_LUNG,0.5768
same,AUC (PRISM viability),SW1353_BONE,0.841
same,AUC (PRISM viability),SW1710_URINARY_TRACT,0.7469
same,AUC (PRISM viability),SW1783_CENTRAL_NERVOUS_SYSTEM,0.7461
same,PRISM AUC,SW1990_PANCREAS,0.4703
same,PRISM AUC,T3M10_LUNG,0.7347
same,AUC (PRISM viability),T24_URINARY_TRACT,0.4656
same,AUC (PRISM viability),T47D_BREAST,0.8281
same,PRISM AUC,T84_LARGE_INTESTINE,0.5086
same,AUC (PRISM viability),T98G_CENTRAL_NERVOUS_SYSTEM,0.6265
same,AUC (PRISM viability),TALL1_HAEMATOPOIETIC_AND_LYMPHOID_TISSUE,0.6203
same,AUC (PRISM viability),TC32_BONE,0.7163
same,AUC (PRISM viability),TC71_BONE,0.7602
same,PRISM AUC,TCCPAN2_PANCREAS,0.4522
same,AUC (PRISM viability),TCCSUP_URINARY_TRACT,0.7623
same,AUC (PRISM viability),TE1_OESOPHAGUS,0.7271
same,AUC (PRISM viability),TE5_OESOPHAGUS,0.4124
same,AUC (PRISM viability),TE6_OESOPHAGUS,0.4273
same,AUC (PRISM viability),TE8_OESOPHAGUS,0.499
same,AUC (PRISM viability),TE9_OESOPHAGUS,0.6448
same,AUC (PRISM viability),TE10_OESOPHAGUS,0.472
same,AUC (PRISM viability),TE11_OESOPHAGUS,0.5416
same,AUC (PRISM viability),TE14_OESOPHAGUS,0.4491
same,AUC (PRISM viability),TE15_OESOPHAGUS,0.2922
same,AUC (PRISM viability),TE617T_SOFT_TISSUE,0.2711
same,AUC (PRISM viability),TF1_HAEMATOPOIETIC_AND_LYMPHOID_TISSUE,0.2378
same,AUC (PRISM viability),THP1_HAEMATOPOIETIC_AND_LYMPHOID_TISSUE,0.3541
same,AUC (PRISM viability),TM31_CENTRAL_NERVOUS_SYSTEM,0.8811
same,PRISM AUC,TOV21G_OVARY,0.5751
same,AUC (PRISM viability),TOV112D_OVARY,0.6714
same,AUC (PRISM viability),TT2609C02_THYROID,0.2965
same,AUC (PRISM viability),TT_OESOPHAGUS,0.5096
same,AUC (PRISM viability),TT_THYROID,1
same,AUC (PRISM viability),TUHR4TKB_KIDNEY,1
same,AUC (PRISM viability),TYKNU_OVARY,0.2088
same,AUC (PRISM viability),U2OS_BONE,0.5581
same,AUC (PRISM viability),U87MG_CENTRAL_NERVOUS_SYSTEM,0.5899
same,AUC (PRISM viability),U118MG_CENTRAL_NERVOUS_SYSTEM,0.8323
same,AUC (PRISM viability),U178_CENTRAL_NERVOUS_SYSTEM,0.6826
same,AUC (PRISM viability),U251MG_CENTRAL_NERVOUS_SYSTEM,0.531
same,AUC (PRISM viability),U343_CENTRAL_NERVOUS_SYSTEM,0.5615
same,AUC (PRISM viability),U937_HAEMATOPOIETIC_AND_LYMPHOID_TISSUE,0.5098
same,AUC (PRISM viability),UACC62_SKIN,0.8484
same,AUC (PRISM viability),UACC257_SKIN,0.9461
same,AUC (PRISM viability),UMUC1_URINARY_TRACT,0.3417
same,AUC (PRISM viability),UO31_KIDNEY,0.7674
same,AUC (PRISM viability),VMCUB1_URINARY_TRACT,0.3401
same,AUC (PRISM viability),VMRCRCW_KIDNEY,0.6728
same,AUC (PRISM viability),VMRCRCZ_KIDNEY,0.8522
same,AUC (PRISM viability),WM88_SKIN,0.8971
same,AUC (PRISM viability),WM793_SKIN,0.8157
same,AUC (PRISM viability),WM983B_SKIN,0.8254
same,AUC (PRISM viability),WM1799_SKIN,0.8407
same,AUC (PRISM viability),WM2664_SKIN,1
same,AUC (PRISM viability),WSUDLCL2_HAEMATOPOIETIC_AND_LYMPHOID_TISSUE,0.6176
same,PRISM AUC,YAPC_PANCREAS,0.2462
same,PRISM AUC,YD8_UPPER_AERODIGESTIVE_TRACT,0.7835
same,AUC (PRISM viability),YD10B_UPPER_AERODIGESTIVE_TRACT,0.2966
same,AUC (PRISM viability),YD15_SALIVARY_GLAND,0.5241
same,AUC (PRISM viability),YD38_UPPER_AERODIGESTIVE_TRACT,0.2157
same,AUC (PRISM viability),YH13_CENTRAL_NERVOUS_SYSTEM,0.7662
same,AUC (PRISM viability),YKG1_CENTRAL_NERVOUS_SYSTEM,0.6011
same,AUC (PRISM viability),ZR751_BREAST,0.8548
